In this experiment the target is T1, human PAD4 (Homo sapiens, UniProt Q9UM07).
T1 construct: human PAD4 (NM_012387), A2-P663, was PCR amplified; His-SUMO (N, cleaved yes); made in house; host or cells: E. coli BL21(DE3)
The experiment in a line: In vitro PAD4 BAEE biochemical assay. The conditions noted are these: BAEE substrate 3 mM, 5 nM PAD4, 2 mM calcium chloride; geometric mean of multiple experiments. Put shortly: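 Assay was run at 25 °C using 3 mM BAEE and 5 nM human PAD4 after a 30 min compound preincubation; ammonia produced over 2 h was quantified by OPA-derived fluorescence. Full inhibition was defined by 50 µM BB-Cl-Amidine, and IC50 came from variable-slope nonlinear regression.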

From US11976083B2, “Inhibitors of peptidylarginine deiminases” (Gilead Sciences, Inc., priority 2020, dated 2024) come the findings set out here.

Each structure is given as a SMILES string.

T1 sequence (Q9UM07 2-663): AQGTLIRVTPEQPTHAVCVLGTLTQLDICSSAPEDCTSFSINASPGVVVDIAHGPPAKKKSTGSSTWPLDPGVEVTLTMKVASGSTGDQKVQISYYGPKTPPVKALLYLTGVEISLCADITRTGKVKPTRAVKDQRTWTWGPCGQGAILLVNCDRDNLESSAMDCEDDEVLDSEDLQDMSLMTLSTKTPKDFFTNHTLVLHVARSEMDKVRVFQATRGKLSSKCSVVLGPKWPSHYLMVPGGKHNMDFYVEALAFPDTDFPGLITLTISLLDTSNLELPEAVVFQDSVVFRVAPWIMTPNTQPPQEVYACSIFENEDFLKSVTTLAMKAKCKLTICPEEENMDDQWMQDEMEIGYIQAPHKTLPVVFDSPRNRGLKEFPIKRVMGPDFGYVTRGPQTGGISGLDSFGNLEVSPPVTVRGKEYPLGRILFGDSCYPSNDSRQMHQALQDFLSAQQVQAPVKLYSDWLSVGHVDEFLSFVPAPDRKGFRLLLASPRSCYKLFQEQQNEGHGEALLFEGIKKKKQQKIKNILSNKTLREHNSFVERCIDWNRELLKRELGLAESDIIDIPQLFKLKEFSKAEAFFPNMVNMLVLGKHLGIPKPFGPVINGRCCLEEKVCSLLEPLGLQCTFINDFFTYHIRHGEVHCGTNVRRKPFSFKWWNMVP

The term IC50 denotes the concentration that inhibits the measured activity by half. `COc1cc(C(=O)N2CC[C@@H](OC)[C@@H](N)C2)cc2nc(-c3cc4ccc5nc4n3CCCCCc3nc4ccsc4cc3C(=O)N[C@@H]5C)n(C)c12` [Example 788, (2~{R})-20-[5-[(3~{S),4~{R})-3-amino-4-methoxy-piperidine-1-carbonyl]-7-methoxy-1-methyl-benzimidazol-2-yl]-2-methyl-8-thia-3,12,19,25-tetrazapentacyclo[17.5.2.0^ {5,13).0^{7,11}.0^{22,26}] hexacosa-1(24),5(13), 6,9,11,20,22,25-octaen-4-one]: the IC50 came to 35 nM.

Turning to `COc1cc(C(=O)N2[C@H]3CC[C@@H]2[C@H](N)C3)cc2nc(-c3cc4ccc5nc4n3CCCCCCCC(=O)N[C@@H]5C)n(C)c12` [Example 285, (11~{R})-17-[5-[(1~{R},2~{R},4~{S})-2-amino-7-azabicyclo[2.2.1]heptane-7-carbonyl]-7-methoxy-1-methyl-benzimidazol-2-yl]-11-methyl-1,10,19-triazatricyclo[10.5.2.0^{15,18}]nonadeca-12(19),13,15(18),16-tetraen-9-one], the IC50 was determined as 7 nM.

Regarding `COc1cc(C(=O)N2CC[C@@H](OC)[C@@H](N)C2)cc2nc(-c3cc4ccc5nc4n3CC(F)(F)CCCC[C@](C)(C(F)(F)F)C(=O)N[C@@H]5C)n(C)c12` [Example 733, (8~{S},11~{R})-17-[5-[(3~ {S},4~{R})-3-amino-4-methoxy-piperidine-1-carbonyl]-7-methoxy-1-methyl-benzimidazol-2-yl]-3,3-difluoro-8,11-dimethyl-8-(trifluoromethyl)-1,10,19-triazatricyclo[10.5.2.0^ {15,18}]nonadeca-12(19),13,15(18),16-tetraen-9-one], the IC50 came to 96 nM.

Consider `COc1cc(C(=O)N2CC[C@@H](OC)[C@@H](N)C2)cc2nc(-c3cc4ccc5nc4n3CCCCCc3ccnc(Cl)c3C(=O)N[C@@H]5C)n(C)c12` [Example 655, (2~{R})-17-[5-[(3~{S},4~{R})-3-amino-4-methoxy-piperidine-1-carbonyl]-7-methoxy-1-methyl-benzimidazol-2-yl]-6-chloro-2-methyl-3,7,16,22-tetrazatetracyclo[14.5.2.0^ {5,10}.0^{19,23}] tricosa-1(22),5,7,9,17,19(23), 20-heptaen-4-one], for which the IC50 amounted to 60 nM.

For the compound `COc1cc(C(=O)N2[C@H]3CC[C@@H]2[C@H](N)C3)cc2nc(-c3cc4ccc5nc4n3C[C@H]3C[C@@H]3COCCC(=O)N[C@@H]5C)n(C)c12` [Example 217, (3~{S},5~{S},12~{R})-18-[5-[(1~{R},2~{R},4~{S})-2-amino-7-azabicyclo[2.2.1]heptane-7-carbonyl]-7-methoxy-1-methyl-benzimidazol-2-yl]-12-methyl-7-oxa-1,11,20-triazatetracyclo[11.5.2.0^{3,5}.0^{16,19}] icosa-13(20),14,16(19),17-tetraen-10-one], the IC50 came to 32 nM.

With `COc1cc(C(=O)N2C[C@H](N)[C@@H]3CC[C@H]2C3)cc2nc(-c3cc4ccc5nc4n3CC(F)(F)CCCCC(C)(C)C(=O)N[C@@H]5C)n(C)c12` [Example 943, (11~{R})-17-[5-[(1~{S},4~{R}, 5~{R})-4-amino-2-azabicyclo [3.2.1]octane-2-carbonyl]-7-methoxy-1-methyl-benzimidazol-2-yl]-3,3-difluoro-8,8,11-trimethyl-1,10,19-triazatricyclo[10.5.2.0^{15,18}] nonadeca-12(19), 13,15(18),16-tetraen-9-one], the IC50 stood at 48 nM.

Turning to `COc1cc(C(=O)N2C[C@H](N)[C@@H]3CC[C@H]2C3)cc2nc(-c3cc4ccc5nc4n3CCCCCOC(C)(C)C(=O)N[C@@H]5C)n(C3CC3)c12` [Example 905, (11~{R})-17-[5-[(1~{S},4~{R}, 5~{R})-4-amino-2-azabicyclo [3.2.1]octane-2-carbonyl]-1-cyclopropyl-7-methoxy-benzimidazol-2-yl]-8,8,11-trimethyl-7-oxa-1,10,19-triazatricyclo[10.5.2.0^{15,18}] nonadeca-12(19), 13,15(18),16-tetraen-9-one], the IC50 was determined as 72 nM.

In the case of `COc1cc(C(=O)N2[C@H]3CC[C@@H]2[C@H](N)C3)cc2nc(-c3cc4ccc5nc4n3CCCCCn3nccc3C(=O)N[C@@H]5C)c(C)n12` [Example 32, (2~{R})-16-[7-[(1~{R},2~{R},4~{S})-2-amino-7-azabicyclo[2.2.1]heptane-7-carbonyl]-5-methoxy-3-methyl-imidazo[1,2-a]pyridin-2-yl]-2-methyl-3,8,9,15,21-pentazatetracyclo[13.5.2.0^{5,9}.0^{18,22}] docosa-1(21),5,7,16,18(22),19-hexaen-4-one], the half-maximal inhibitory concentration (IC50) was determined as 12 nM.

For the compound `COc1cc(C(=O)N2C[C@H]3OC[C@@H]2[C@@H]3N)cc2nc(-c3cc4ccc5nc4n3CC(F)(F)CCC[C@@H]3C[C@H]3C(=O)N[C@@H]5C)n(C)c12` [Example 707, (2~{R},5~{R},7~{R})-14-[5-[(1~{R},4~{S},7~ {S})-7-amino-2-oxa-5-azabicyclo[2.2.1]heptane-5-carbonyl]-7-methoxy-1-methyl-benzimidazol-2-yl]-11,11-difluoro-2-methyl-3,13,19-triazatetracyclo[11.5.2.0^ {5,7}.0^{16,20}]icosa-1(19),14,16(20),17-tetraen-4-one], the IC50 is 21 nM.

With `COc1cc(C(=O)N2C[C@H](N)[C@@H]3CC[C@H]2C3)cc2nc(-c3cc4ccc5nc4n3CCCCCc3cc(Cl)ncc3C(=O)N[C@@H]5C)n(C3CC3)c12` [Example 818, (2~{R})-17-[5-[(1~{S},4~{R}, 5~{R})-4-amino-2-azabicyclo[3.2.1]octane-2-carbonyl]-1-cyclopropyl-7-methoxy-benzimidazol-2-yl]-8-chloro-2-methyl-3,7,16,22-tetrazatetracyclo[14.5.2.0^ {5,10).0^{19,23}]tricosa-1(21),5(10),6,8,17,19,22-heptaen-4-one], the IC50 turned out to be 12 nM.

In the case of `C[C@H]1NC(=O)c2ccc(C(F)F)nc2CCCCCn2c(-c3nc4cc(C(=O)N5C[C@H](N)[C@@H]6CC[C@H]5C6)cc(F)c4n3C3CC3)cc3ccc1nc32` [Example 843, (2~{R})-17-[5-[(1~{S},4~ {R},5~{R})-4-amino-2-azabicyclo[3.2.1]octane-2-carbonyl]-1-cyclopropyl-7-fluoro-benzimidazol-2-yl]-8-(difluoromethyl)-2-methyl-3,9,16,22-tetrazatetracyclo [14.5.2.0^{5,10}.0^{19,23}] tricosa-1(22),5(10),6,8,17, 19(23),20-heptaen-4-one], the IC50 was found to be 18 nM.

On to `COc1cc(C(=O)N2CC[C@@H](OC)[C@@H](N)C2)cc2nc(-c3cc4ccc5nc4n3CCCCCc3nccnc3C(=O)N[C@@H]5C)n(C)c12` [Example 240, (2~{R})-17-[5-[(3~{S),4~{R})-3-amino-4-methoxy-piperidine-1-carbonyl]-7-methoxy-1-methyl-benzimidazol-2-yl]-2-methyl-3,6,9,16,22-pentazatetracyclo[14.5.2.0^{5,10}.0^{19, 23}]tricosa-1(21),5(10),6,8,17,19,22-heptaen-4-one], for which the half-maximal inhibitory concentration (IC50) amounted to 137 nM.
